Key:
[1] = biological target: T1, KCNQ3/5 (Homo sapiens, UniProt O43525+Q9NR82); assay: TEVC of KCNQ3/5 heteromers expressed in Xenopus laevis oocytes; type: cell-based; settings: 5 µM each substance
T1 construct: expressed in transfected cells; host or cells: Xenopus laevis oocytes co-injected with cRNAs
Source text: (§1) We generated cRNA transcripts encoding human KCNQ1, 2, 3, and 5 (wild-type and mutant) by in vitro transcription using the mMessage mMachine kit (Thermo Fisher Scientific, Waltham, MA, USA) according to manufacturer’s instructions, after vector linearization, from cDNA sub-cloned into expression vectors (pTLNx and pXOOM) incorporating Xenopus laevis β-globin 5’ and 3’ UTRs flanking the coding region to enhance translation and cRNA stability. Mutant KCNQ cDNAs were generated by Genscript (Piscataway, NJ, USA) and cRNAs made as above. We injected defolliculated stage V and VI Xenopus laevis oocytes (Xenoocyte, Dexter, MI, USA) with KCNQ cRNAs (2–10 ng) and incubated the oocytes at 16 °C in ND96 oocyte storage solution containing penicillin and streptomycin, with daily washing, for 2–4 days prior to two-electrode voltage-clamp (TEVC) recording.
(§2) We performed TEVC at room temperature using an OC-725C amplifier (Warner Instruments, Hamden, CT, USA) and pClamp10 software (Molecular Devices, Sunnyvale, CA, USA) 2–4 days after cRNA injection. We placed oocytes in a small-volume oocyte bath (Warner) and viewed them with a dissection microscope for cellular electrophysiology. We sourced chemicals from Sigma-Aldrich (St. Louis, MO, USA) and Combi-Blocks (San Diego, CA, USA). We studied effects of Salvia rosmarinus extracts and of compounds, solubilized directly in bath solution (in mM): 96 NaCl, 4 KCl, 1 MgCl2, 1 CaCl2, 10 HEPES (pH 7.6). We introduced extracts or compounds into the oocyte recording bath by gravity perfusion at a constant flow of 1 ml per minute for 3 min prior to recording. Pipettes were of 1-2 MΩ resistance when filled with 3 M KCl. […] We analyzed data using Clampfit (Molecular Devices) and Graphpad Prism software (GraphPad, San Diego, CA, USA), stating values as mean ± SEM. We plotted raw or normalized tail currents versus prepulse voltage and fitted with a single Boltzmann function:1 g=(A1−A2)/1+exp[V1/2−V/Vs]y+A2 where g is the normalized tail conductance, A1 is the initial value at -∞, A2 is the final value at +∞, V1/2 is the half-maximal voltage of activation and Vs the slope factor. We fitted activation and deactivation kinetics with single exponential functions.

[2] = biological target: KCNQ3* (KCNQ3-A315T) (Homo sapiens, UniProt O43525, A315T); assay: TEVC of KCNQ3* homomers expressed in Xenopus laevis oocytes; type: cell-based
KCNQ3* (KCNQ3-A315T), sequence (O43525 whole entry A315T): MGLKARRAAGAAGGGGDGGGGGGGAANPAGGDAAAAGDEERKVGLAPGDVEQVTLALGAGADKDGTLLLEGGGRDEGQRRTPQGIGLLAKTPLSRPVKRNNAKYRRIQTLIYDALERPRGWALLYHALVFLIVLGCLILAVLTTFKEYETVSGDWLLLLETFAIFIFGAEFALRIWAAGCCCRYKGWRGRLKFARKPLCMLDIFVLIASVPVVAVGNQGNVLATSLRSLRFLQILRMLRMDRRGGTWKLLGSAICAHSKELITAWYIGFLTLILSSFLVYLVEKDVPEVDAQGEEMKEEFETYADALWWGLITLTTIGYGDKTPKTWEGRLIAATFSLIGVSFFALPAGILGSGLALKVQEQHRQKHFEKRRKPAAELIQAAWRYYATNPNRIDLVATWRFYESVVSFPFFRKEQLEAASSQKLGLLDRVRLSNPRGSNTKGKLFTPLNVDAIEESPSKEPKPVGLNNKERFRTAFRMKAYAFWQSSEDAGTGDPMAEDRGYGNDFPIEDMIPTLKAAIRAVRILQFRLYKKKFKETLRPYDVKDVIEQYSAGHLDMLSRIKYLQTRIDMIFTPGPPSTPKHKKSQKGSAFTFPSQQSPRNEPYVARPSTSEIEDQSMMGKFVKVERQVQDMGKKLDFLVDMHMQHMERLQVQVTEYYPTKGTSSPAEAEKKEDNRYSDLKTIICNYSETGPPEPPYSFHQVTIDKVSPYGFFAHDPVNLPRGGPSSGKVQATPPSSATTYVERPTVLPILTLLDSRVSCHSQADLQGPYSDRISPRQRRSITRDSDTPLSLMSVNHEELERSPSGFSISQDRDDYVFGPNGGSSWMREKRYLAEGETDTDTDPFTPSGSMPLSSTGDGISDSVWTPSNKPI

[3] = biological target: T2, KCNQ2/3 (Homo sapiens, UniProt O43525+O43526); assay: TEVC of KCNQ2/3 heteromers expressed in Xenopus laevis oocytes; type: cell-based
T2 construct: expressed in transfected cells; host or cells: Xenopus laevis oocytes co-injected with cRNAs
Source text: as §1
as §2, with “We” for “We performed TEVC at room temperature using an OC-725C amplifier (Warner Instruments, Hamden, CT, USA) and pClamp10 software (Molecular Devices, Sunnyvale, CA, USA) 2–4 days after cRNA injection. We”

[4] = biological target: KCNQ2 (Homo sapiens, UniProt O43526); assay: TEVC of KCNQ2 homomers expressed in Xenopus laevis oocytes; type: cell-based
Source text: as §1, §2

[5] = Solubility limit for testing in bath solution; type: physicochemical; settings: bath solution
Source text: We performed TEVC at room temperature using an OC-725C amplifier (Warner Instruments, Hamden, CT, USA) and pClamp10 software (Molecular Devices, Sunnyvale, CA, USA) 2–4 days after cRNA injection. We placed oocytes in a small-volume oocyte bath (Warner) and viewed them with a dissection microscope for cellular electrophysiology. We sourced chemicals from Sigma-Aldrich (St. Louis, MO, USA) and Combi-Blocks (San Diego, CA, USA). We studied effects of Salvia rosmarinus extracts and of compounds, solubilized directly in bath solution (in mM): 96 NaCl, 4 KCl, 1 MgCl2, 1 CaCl2, 10 HEPES (pH 7.6). We introduced extracts or compounds into the oocyte recording bath by gravity perfusion at a constant flow of 1 ml per minute for 3 min prior to recording. Pipettes were of 1-2 MΩ resistance when filled with 3 M KCl. We recorded currents in response to voltage pulses between −120 mV and +40 mV at 10 mV intervals from a holding potential of −80 mV, to yield current-voltage relationships and examine activation kinetics. We analyzed data using Clampfit (Molecular Devices) and Graphpad Prism software (GraphPad, San Diego, CA, USA), stating values as mean ± SEM. We plotted raw or normalized tail currents versus prepulse voltage and fitted with a single Boltzmann function:1 g=(A1−A2)/1+exp[V1/2−V/Vs]y+A2 where g is the normalized tail conductance, A1 is the initial value at -∞, A2 is the final value at +∞, V1/2 is the half-maximal voltage of activation and Vs the slope factor. We fitted activation and deactivation kinetics with single exponential functions.

[6] = tested on: KCNQ3/5; set-up: method as in PMID 11159685; settings: cited from earlier work
[7] = 5 µM each substance, table head prints KCNQ3*, text says KCNQ3/5

C1=C2CCCN[C@H]2[C@@H]2C[C@H]1[C@H]1CCCCN1C2 [Aloperine, aloperine, reference compound]
channel opening [1]: weak KCNQ3/5 opener
Slope [2, 7]: 6.96 ± 0.67 mV
V0.5 Normalized tail current [2, 7]: -46.72 ± 0.78 mV

CC(C)c1cc2c(c(O)c1O)[C@@]13CCCC(C)(C)[C@@H]1C[C@@H]2OC3=O [Carnosol]
Slope ([3]; 100 µM): 5.82 ± 0.75 mV
V0.5 Normalized tail current ([3]; 100 µM): -47.80 ± 0.87 mV
effect on EM of unclamped oocytes ([3]; 100 µM): did not alter
shift in V0.5act ([3]; 100 µM): no shift
Slope ([4]; 100 µM): 3.97 ± 1.31 mV
V0.5 Normalized tail current ([4]; 100 µM): -57.08 ± 1.31 mV
effect on EM of unclamped oocytes ([4]; 100 µM): did not alter
Slope ([2]; 100 µM): 5.00 ± 1.11 mV
V0.5 Normalized tail current ([2]; 100 µM): -61.13 ± 1.28 mV
shift in V0.5act ([2]; 100 µM): −11 mV
effect on EM of unclamped oocytes ([2]; 100 µM (hesperidin 30 µM)): did not alter

COc1cc(C(=O)O)cc(OC)c1O [Syringic acid]
Slope ([3]; 100 µM): 5.13 ± 0.75 mV
V0.5 Normalized tail current ([3]; 100 µM): -47.76 ± 0.91 mV
V0.5 non-normalized tail current ([3]; 100 µM): -44.21 ± 2.07 mV
Slope ([2]; 100 µM): 4.92 ± 1.03 mV
V0.5 Normalized tail current ([2]; 100 µM): -49.16 ± 1.21 mV
V0.5 non-normalized tail current ([2]; 100 µM): -51.58 ± 5.36 mV

CC(C)c1cc2c3c(c1O)OC(=O)C31CCCC(C)(C)C1CC2 (stereo not drawn) [Carnosic gamma lactone, carnosic acid γ-lactone]
Slope ([3]; 10 µM): 6.78 ± 0.62 mV
V0.5 Normalized tail current ([3]; 10 µM): -40.71 ± 0.71 mV
effect on EM of unclamped oocytes ([3]; 10 µM): without hyperpolarizing
shift in V0.5act / opening ([3]; 10 µM): −10 mV
Slope ([4]; 10 µM): 6.47 ± 0.40 mV
V0.5 Normalized tail current ([4]; 10 µM): -46.18 ± 0.46 mV
solubility (highest testable concentration) [5]: solubility issues
Slope ([2]; 10 µM): 4.81 ± 0.56 mV
V0.5 Normalized tail current ([2]; 10 µM): -54.06 ± 0.70 mV
effect on EM of unclamped oocytes ([2]; 10 µM): without hyperpolarizing
shift in V0.5act / opening ([2]; 10 µM): −8.7 mV

CCOC(=O)Nc1ccc(NCc2ccc(F)cc2)cc1N [retigabine]
shift in V0.5 of KCNQ3/5 activation ([6]; 30 µM): −31.8 mV
EC50 [6]: 1400 nM

COc1c(C(C)C)cc2c(c1OC)C13CCCC(C)(C)C1CC2OC3=O (stereo not drawn) [Dimethylcarnosol, dimethyl carnosol]
Slope ([3]; 100 µM): 6.71 ± 0.64 mV
V0.5 Normalized tail current ([3]; 100 µM): -37.81 ± 0.73 mV
Slope ([2]; 100 µM): 4.92 ± 0.40 mV
V0.5 Normalized tail current ([2]; 100 µM): -49.25 ± 0.43 mV
hyperpolarization of EM ([2]; 100 µM, unclamped oocytes): > 8 mV

O=C(O)[C@]1(O)C[C@@H](O)[C@@H](O)[C@H](O)C1 [Quinic acid, quinic acid]
Slope ([3]; 100 µM): 4.07 ± 0.85 mV
V0.5 Normalized tail current ([3]; 100 µM): -47.87 ± 0.94 mV
V0.5 non-normalized tail current ([3]; 100 µM): -45.78 ± 1.64 mV
Slope ([2]; 100 µM): 3.96 ± 0.88 mV
V0.5 Normalized tail current ([2]; 100 µM): -53.04 ± 1.09 mV
V0.5 non-normalized tail current ([2]; 100 µM): -51.87 ± 2.53 mV
shift in V0.5act ([2]; 100 µM): ~ −10 mV

— paper PMC10272180, “Ancient medicinal plant rosemary contains a highly efficacious and isoform-selective KCNQ potassium channel opener” (Communications Biology, 2023)
